What was measured:
Assay type in all cases: functional
[1] = tested on: SW-620; assay: Cytotoxicity against human SW620 cells assessed as cell growth at 10^-6 M after 48 hrs by SRB assay; conditions: SW-620, 48 h, read-out: Activity
[2] = tested on: MOLT-4; assay: Cytotoxicity against human MOLT4 cells assessed as cell growth at 10^-8 M after 48 hrs by SRB assay; conditions: MOLT-4, 48 h, read-out: Activity
[3] = tested on: COLO 205; assay: Cytotoxicity against human COLO205 cells assessed as cell growth at 10^-5 M after 48 hrs by SRB assay; conditions: COLO 205, 48 h, read-out: Activity
[4] = Cytotoxicity against human UO31 cells assessed as cell growth at 10^-7 M after 48 hrs by SRB assay; conditions: UO-31, 48 h, read-out: Activity
[5] = tested on: NCI-H460; assay: Cytotoxicity against human NCI-H460 cells assessed as cell growth at 10^-5 M after 48 hrs by SRB assay; conditions: NCI-H460, 48 h, read-out: Activity
[6] = tested on: HT-29; assay: Cytotoxicity against human HT-29 cells assessed as cell growth at 10^-4 M after 48 hrs by SRB assay; conditions: HT-29, 48 h, read-out: Activity
[7] = tested on: SK-MEL-2; assay: Cytotoxicity against human SK-MEL-2 cells assessed as cell growth at 10^-6 M after 48 hrs by SRB assay; conditions: SK-MEL-2, 48 h, read-out: Activity
[8] = tested on: NCI-H522; assay: Cytotoxicity against human NCI-H522 cells assessed as cell growth at 10^-5 M after 48 hrs by SRB assay; conditions: NCI-H522, 48 h, read-out: Activity
[9] = Cytotoxicity against human UO31 cells after 48 hrs by SRB assay; conditions: UO-31, 48 h
[10] = tested on: OVCAR-3; assay: Cytotoxicity against human OVCAR3 cells assessed as cell growth at 10^-5 M after 48 hrs by SRB assay; conditions: OVCAR-3, 48 h, read-out: Activity
[11] = Cytotoxicity against human OVCAR5 cells assessed as cell growth at 10^-5 M after 48 hrs by SRB assay; conditions: OVCAR-5, 48 h, read-out: Activity
[12] = Cytotoxicity against human NCI-ADR-RES cells assessed as cell growth at 10^-5 M after 48 hrs by SRB assay; conditions: read-out: Activity
[13] = tested on: A549; assay: Cytotoxicity against human A549 cells assessed as cell growth at 10^-5 M after 48 hrs by SRB assay; conditions: A549, 48 h, read-out: Activity
[14] = tested on: SNB-19; assay: Cytotoxicity against human SNB19 cells assessed as cell growth at 10^-8 M after 48 hrs by SRB assay; conditions: SNB-19, 48 h, read-out: Activity
[15] = tested on: SR; assay: Cytotoxicity against human SR cells assessed as cell growth at 10^-5 M after 48 hrs by SRB assay; conditions: read-out: Activity
[16] = tested on: 786-0; assay: Cytotoxicity against human 786-0 cells assessed as cell growth at 10^-4 M after 48 hrs by SRB assay; conditions: 786-0, 48 h, read-out: Activity
[17] = tested on: NCI-H23; assay: Cytotoxicity against human NCI-H23 cells assessed as cell growth at 10^-5 M after 48 hrs by SRB assay; conditions: NCI-H23, 48 h, read-out: Activity
[18] = tested on: SF-295; assay: Cytotoxicity against human SF295 cells assessed as cell growth at 10^-5 M after 48 hrs by SRB assay; conditions: SF-295, 48 h, read-out: Activity
[19] = tested on: IGROV-1; assay: Cytotoxicity against human IGROV1 cells assessed as cell growth at 10^-5 M after 48 hrs by SRB assay; conditions: IGROV-1, 48 h, read-out: Activity
[20] = tested on: SK-MEL-2; assay: Cytotoxicity against human SK-MEL-2 cells after 48 hrs by SRB assay; conditions: SK-MEL-2, 48 h
[21] = tested on: OVCAR-8; assay: Cytotoxicity against human OVCAR8 cells assessed as cell growth at 10^-5 M after 48 hrs by SRB assay; conditions: OVCAR-8, 48 h, read-out: Activity
[22] = tested on: SK-MEL-28; assay: Cytotoxicity against human SK-MEL-28 cells assessed as cell growth at 10^-4 M after 48 hrs by SRB assay; conditions: SK-MEL-28, 48 h, read-out: Activity
[23] = tested on: SK-MEL-5; assay: Cytotoxicity against human SK-MEL-5 cells assessed as cell growth at 10^-5 M after 48 hrs by SRB assay; conditions: SK-MEL-5, 48 h, read-out: Activity
[24] = tested on: HOP-92; assay: Cytotoxicity against human HOP92 cells assessed as cell growth at 10^-5 M after 48 hrs by SRB assay; conditions: HOP-92, 48 h, read-out: Activity
[25] = tested on: HCC 2998; assay: Cytotoxicity against human HCC2998 cells assessed as cell growth at 10^-5 M after 48 hrs by SRB assay; conditions: HCC 2998, 48 h, read-out: Activity
[26] = tested on: CCRF-CEM; assay: Cytotoxicity against human CCRF-CEM cells assessed as cell growth at 10^-8 M after 48 hrs by SRB assay; conditions: read-out: Activity
[27] = tested on: T47D; assay: Cytotoxicity against human T47D cells assessed as cell growth at 10^-6 M after 48 hrs by SRB assay; conditions: read-out: Activity
[28] = tested on: HL-60(TB); assay: Cytotoxicity against human HL-60(TB) cells assessed as cell growth at 10^-5 M after 48 hrs by SRB assay; conditions: HL-60, 48 h, read-out: Activity
[29] = tested on: M14; assay: Cytotoxicity against human M14 cells assessed as cell growth at 10^-5 M after 48 hrs by SRB assay; conditions: M14, 48 h, read-out: Activity
[30] = tested on: CCRF-CEM; assay: Cytotoxicity against human CCRF-CEM cells assessed as cell growth at 10^-5 M after 48 hrs by SRB assay; conditions: read-out: Activity
[31] = tested on: BT-549; assay: Cytotoxicity against human BT549 cells assessed as cell growth at 10^-8 M after 48 hrs by SRB assay; conditions: BT-549, 48 h, read-out: Activity
[32] = tested on: MCF7; assay: Cytotoxicity against human MCF7 cells assessed as cell growth at 10^-5 M after 48 hrs by SRB assay; conditions: MCF7, 48 h, read-out: Activity
[33] = tested on: SF-295; assay: Cytotoxicity against human SF295 cells assessed as cell growth at 10^-8 M after 48 hrs by SRB assay; conditions: SF-295, 48 h, read-out: Activity
[34] = tested on: A498; assay: Cytotoxicity against human A498 cells assessed as cell growth at 10^-5 M after 48 hrs by SRB assay; conditions: A498, 48 h, read-out: Activity
[35] = tested on: HOP-92; assay: Cytotoxicity against human HOP92 cells assessed as cell growth at 10^-7 M after 48 hrs by SRB assay; conditions: HOP-92, 48 h, read-out: Activity
[36] = tested on: SF-539; assay: Cytotoxicity against human SF539 cells assessed as cell growth at 10^-5 M after 48 hrs by SRB assay; conditions: SF-539, 48 h, read-out: Activity
[37] = tested on: T47D; assay: Cytotoxicity against human T47D cells assessed as cell growth at 10^-5 M after 48 hrs by SRB assay; conditions: read-out: Activity

Compound: C=CCn1c(C)nc2cc(Nc3nc(Nc4ccc5nc(C)n(CC=C)c5c4)c4ccccc4n3)ccc21
- growth at 1 µM [1]: -69%
- growth at 0.01 µM [2]: 98%
- growth at 10 µM [3]: -100%
- growth at 0.1 µM [4]: 86%
- growth at 10 µM [5]: -84.2%
- growth at 100 µM [6]: -50%
- growth at 1 µM [7]: 74%
- growth at 10 µM [8]: -94.8%
- GI50 [9]: 1.34 µM
- LC50 (concentration causing 50% net cell kill) [9]: 5.17 µM
- TGI [9]: 2.63 µM
- growth at 10 µM [10]: -100%
- growth at 10 µM [11]: -98%
- growth at 10 µM [12]: -46%
- growth at 10 µM [13]: -67.1%
- growth at 0.01 µM [14]: 91%
- growth at 10 µM [15]: -44.2%
- growth at 100 µM [16]: -21%
- growth at 10 µM [17]: -69.2%
- growth at 10 µM [18]: -100%
- growth at 10 µM [19]: -93.8%
- GI50 [20]: 1.44 µM
- TGI [20]: 3.08 µM
- growth at 10 µM [21]: -40.9%
- growth at 100 µM [22]: -48%
- growth at 10 µM [23]: -95.2%
- growth at 10 µM [24]: -97%
- growth at 10 µM [25]: -98%
- growth at 0.01 µM [26]: 105%
- growth at 1 µM [27]: -4%
- growth at 10 µM [28]: -70%
- growth at 10 µM [29]: -88%
- growth at 10 µM [30]: -29%
- growth at 0.01 µM [31]: 100%
- growth at 10 µM [32]: -89.3%
- growth at 0.01 µM [33]: 90%
- growth at 10 µM [34]: -100%
- growth at 0.1 µM [35]: 91%
- growth at 10 µM [36]: -100%
- growth at 10 µM [37]: -60.4%

— ChEMBL document CHEMBL3112450, “Synthesis and in vitro antitumor evaluation of primary amine substituted quinazoline linked benzimidazole” (Bioorg Med Chem Lett, 2014)
